Key:
TSLP induced pSTAT5 = assay: TSLP-induced pSTAT5 in human whole blood (CD3+ cells); assay type: cell-based; conditions: JAK1/JAK2, read-out: TSLP induced pSTAT5, cellular potency IC50
Protocol: Human whole blood was collected from healthy donors via vein puncture into Vacutainer collection tubes containing sodium heparin in accordance with Pfizer protocols (Protocol No. GOHW RDP-01) approved by the Shulman Institutional Review Board. Blood was warmed to 37° C. priorto use. Human whole blood was aliquoted (90 μL/well) in 96-well, deep-well, V-bottom plates and treated with compounds (5 μL/well) at different concentrations up to 60 μM (0.2% DMSO final) at 37° C. for 60 minutes. This was followed by a challenge with IFNα (5000 U/mL), IFNγ (100 ng/mL), IL-6 (50 ng/mL), IL-10 (30 ng/mL), IL-12 (30 ng/mL), IL-15 (30 ng/mL), IL-21 (50 ng/mL), IL-23 (25 ng/mL), IL-27 (1000 ng/mL), EPO (2 U/mL), TSLP (50 ng/mL) or PBS and incubated for 15 minutes. Anti-cell surface antibodies were added 15 minutes prior to cytokine stimulation; anti-CD3-BV421 (0.5 μL/well) to IL-6-treated and TSLP-treated samples and anti-CD14-BV421 (0.5 μL/well) to IFNγ-treated samples. Samples were treated with warm 1×Lyse/Fix buffer (700 μL/well) to terminate activation and further incubated at 37° C. for 20 minutes to lyse red blood cells. Plates were centrifuged at 300×g for 5 minutes, supernatant was aspirated, and cells were washed with 800 μL/well of staining buffer (D-PBS containing 0.1% FBS and 0.01% sodium azide). Washed cell pellets were resuspended in 350 μL/well of prechilled 90% methanol and incubated at 4° C. for 30 minutes. After the removal of 90% methanol, cells were washed once with staining buffer. […]
After overnight incubation at 4° C., anti-pSTAT stained samples were transferred into 96-well polypropylene U-bottom plates and flow cytometric analysis was performed on a LSR Fortessa™ equipped with a HTS plate loader. […] Background fluorescence was defined using unstimulated cells and a gate was placed at the foot of the peak to include ˜0.5% gated population. […]

IL-31 induced pSTAT3 = assay: IL-31-induced pSTAT3 in IFNγ-primed THP-1 cells; assay type: cell-based; conditions: Homo sapiens, JAK1/JAK2, read-out: IL-31 induced pSTAT3, cellular potency IC50
Protocol: THP-1 cells were maintained in RPMI 1640 medium containing 10% FBS, 50 μM 2 mercaptoethanol, 50 U/mL penicillin, 50 µg/mL streptomycin and 2 mM L-glutamine. THP 1 cells were treated with IFNγ (20 ng/mL) for 18 hours. IFNγ primed THP-1 cells were resuspended in fresh RPMI 1640 medium, treated with compounds (0.0003 to 20 μM) for 60 minutes, followed by stimulation with IL-31 (1 μg/mL) for additional 10 minutes. Cells were then fixed by 2% paraformaldehyde and permeabilized by 90% methanol. Fixed and permeabilized cells were stained with AlexaFluor647™ labeled anti-pSTAT3 antibody (1 to 150 dilution).
After overnight incubation at 4° C., anti-pSTAT stained samples were transferred into 96-well polypropylene U-bottom plates and flow cytometric analysis was performed on a LSR Fortessa™ equipped with a HTS plate loader. For human whole blood samples, lymphocyte population was gated for pSTAT histogram analysis for IFNα, IL-10, IL-12, IL-15, IL-21, IL-23, and IL-27-treated samples; CD14^+ cells for IFNγ-treated samples; CD3^+ cells for IL-6 and TSLP-treated samples; all events (entire populations) for EPO-treated samples. Entire populations of keratinocytes and THP-1 cells were gated for the IL-4, IL-13, IL-22 and IL-31 assays. Background fluorescence was defined using unstimulated cells and a gate was placed at the foot of the peak to include ˜0.5% gated population. Histogram statistical analysis was performed using FACSDiva version 8.0. Relative fluorescence unit, which measures the level of pSTAT, was calculated by multiplying the percent positive population and its mean fluorescence. Inhibition curves and half maximal inhibitory concentration (IC50) values were determined using Prism™ software (Version 8) or the Activity Base data analysis software (ID Business Solutions).

| IC50 (TSLP induced pSTAT5) [nM] | IC50 (IL-31 induced pSTAT3) [nM] | Compound |
| --- | --- | --- |
| 271 | 56 | C[C@H](O)CS(=O)(=O)N[C@H]1C[C@@H](N(C)c2ncnc3[nH]ccc23)C1 (single isomer, unassigned) [IA (M2)] |
| 785 | 79.6 | CN(c1ncnc2[nH]ccc12)[C@H]1C[C@@H](NS(=O)(=O)CCCO)C1 [IB (M1), 3-Hydroxy-N-(cis-3-(methyl(7H-pyrrolo[2,3-d]pyrimidin-4-yl)amino)cyclobutyl)propane-1-sulfonamide] |

From patent publication US20230219963A1, “PYRROLO[2,3-D]PYRIMIDINE DERIVATIVES” (Pfizer Inc., priority 2020, published 2023)
